The text below walks through data of US20240287046A1, “COMPOUNDS AND RADIOLIGANDS FOR TARGETING NEUROTENSIN RECEPTOR AND USES THEREOF” (Full-Life Technologies HK Limited, priority 2022, published 2024).

Each structure is given as a SMILES string. Like-named read-outs stand apart in the source and are kept apart here.

The target of one experiment is human NTSR-1 (Homo sapiens (Human), UniProt P30989). The experiment in a line: radioligand competitive binding assay using ^177Lu labeled C-1 as reference radioligand. To be noted: for IC50: Nonlin fit, single assay, HT-29 cells. The gist of the method:
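HT-29 cells expressing human NTSR-1 incubated with ¹⁷⁷Lu-C-1 (0.55 μCi/well) and test compound in RPMI-1640 + 0.25% BSA, 1 h at 37 °C (n=3). Unbound label removed by filtration, cell-bound radioactivity gamma-counted; IC50 from nonlinear regression of displacement.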

A further experiment deals with NTR1 (Homo sapiens (Human), UniProt P30989). As to conditions: cited from earlier work.
NTR1, sequence (P30989 whole entry, species assumed): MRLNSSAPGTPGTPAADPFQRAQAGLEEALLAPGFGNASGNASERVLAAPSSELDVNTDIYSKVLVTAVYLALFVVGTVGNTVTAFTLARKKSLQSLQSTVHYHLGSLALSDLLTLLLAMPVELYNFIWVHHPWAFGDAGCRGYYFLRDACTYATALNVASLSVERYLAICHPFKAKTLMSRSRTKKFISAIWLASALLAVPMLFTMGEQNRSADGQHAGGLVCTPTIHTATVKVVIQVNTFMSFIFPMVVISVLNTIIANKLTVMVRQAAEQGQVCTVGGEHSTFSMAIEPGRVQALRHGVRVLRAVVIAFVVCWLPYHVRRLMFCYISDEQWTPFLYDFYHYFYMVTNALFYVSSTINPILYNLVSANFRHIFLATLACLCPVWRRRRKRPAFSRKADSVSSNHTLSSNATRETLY

human NTSR-1, sequence (P30989 whole entry): as the sequence (P30989 whole entry, species assumed) above

Consider `COc1cccc(OC)c1-c1cc(C(=O)NC2(C(=O)O)C3CC4CC(C3)CC2C4)nn1-c1ccc(C(=O)N(C)CCCN(C)C)cc1C(C)C` (stereo not shown) [Compound C-3, reference compound], for which, on human NTSR-1 (Mean IC50 of C-1/Mean IC50 of the test compound), the “Relative Binding Affinity” value stood at 13.7. The IC50 at human NTSR-1 (read-out: IC50 (nM) Mean) and at human NTSR-1 (read-out: LogIC50 Mean (converted)) was 2.05 nM each time. Moreover, the “binding affinity to NTR1 as an antagonist” value at NTR1 was “high binding affinity”.
